# Legend:
# rat mGlu7 = rat mGlu7 (Rattus norvegicus, UniProt P35400); assay: calcium mobilization assay with rat mGlu7/Gα15/HEK cells; assay type: cell-based
# clearance in vivo = settings: plasma
# [1] = stability under cell-based assay conditions; assay type: physicochemical; settings: cell buffer
# rat mGlu7, sequence (P35400 35-915): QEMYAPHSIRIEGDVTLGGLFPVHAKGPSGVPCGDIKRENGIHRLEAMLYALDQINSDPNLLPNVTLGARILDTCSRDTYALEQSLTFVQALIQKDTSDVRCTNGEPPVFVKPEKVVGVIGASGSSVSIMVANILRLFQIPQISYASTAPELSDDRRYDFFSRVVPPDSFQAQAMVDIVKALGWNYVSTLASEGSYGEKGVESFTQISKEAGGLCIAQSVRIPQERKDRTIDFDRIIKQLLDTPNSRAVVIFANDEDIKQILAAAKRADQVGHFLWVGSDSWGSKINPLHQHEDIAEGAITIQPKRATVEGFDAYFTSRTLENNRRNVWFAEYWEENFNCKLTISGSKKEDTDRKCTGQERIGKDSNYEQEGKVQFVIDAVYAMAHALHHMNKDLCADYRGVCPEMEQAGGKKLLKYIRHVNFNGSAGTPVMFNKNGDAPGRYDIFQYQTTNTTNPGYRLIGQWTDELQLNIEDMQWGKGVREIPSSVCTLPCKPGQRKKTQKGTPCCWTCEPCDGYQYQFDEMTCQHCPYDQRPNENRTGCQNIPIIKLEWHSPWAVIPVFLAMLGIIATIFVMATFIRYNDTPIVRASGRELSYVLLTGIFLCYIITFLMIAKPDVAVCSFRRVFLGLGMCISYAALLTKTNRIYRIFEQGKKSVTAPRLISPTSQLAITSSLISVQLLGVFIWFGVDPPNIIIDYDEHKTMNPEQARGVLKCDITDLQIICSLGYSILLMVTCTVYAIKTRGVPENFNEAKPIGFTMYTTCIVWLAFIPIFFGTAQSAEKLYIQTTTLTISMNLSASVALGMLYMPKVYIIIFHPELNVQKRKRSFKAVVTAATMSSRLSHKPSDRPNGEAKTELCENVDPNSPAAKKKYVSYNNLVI
mGlu7 NAM activity in words (rat mGlu7),SMILES,also measured
inactive,CCOC(=O)c1ccc2c(OC)cccc2c1N1CCN(c2ccccc2OC)CC1 [13d],–
equipotent to 8,CCOC(=O)c1cnc2c(OC)cc(OC)cc2c1N1CCN(c2ccccc2OC)CC1 [13f],–
inactive,CCOC(=O)c1cnc2c(OC)cccc2c1C1CC2CC(C1)N2c1ccccc1OC (stereo not drawn) [14g],–
not productive,CCOC(=O)c1cnc2c(OC)cccc2c1N1CC2(CN(c3ccccc3OC)C2)C1 [14i],–
competent surrogate,CCOC(=O)c1cnc2c(OC)cccc2c1-c1ccn(Cc2ccccc2OC)c1 [15j],–

# Continued, compound first:
SMILES,mGlu7 NAM activity in words (rat mGlu7),also measured
CCOC(=O)c1cnc2c(OC)cccc2c1N(C)CCN(C)c1ccccc1OC [14c],–,fold loss of mGlu7 NAM potency relative to 8 (rat mGlu7): ~ 6 fold
CCOC(=O)c1cnc2c(OC)cccc2c1-c1cnc(-c2ccccc2OC)c(OC)c1 [15h],–,clearance (clearance in vivo): 70 mL/min/kg
CCOC(=O)c1cnc2sccc2c1N1CCN(c2ccccc2OC)CC1 [13c],–,fold loss of mGlu7 NAM potency relative to 8 (rat mGlu7): ~ 6.5 fold
CCOC(=O)c1cnc2ccsc2c1N1CCN(c2ccccc2OC)CC1 [13b],–,fold loss of mGlu7 NAM potency relative to 8 (rat mGlu7): ~ 6.5 fold
CCOC(=O)c1cnc2c(OC)cccc2c1N1CCN(c2ccccc2OC)C(C)C1 (stereo not drawn) [14a],–,fold loss of mGlu7 NAM potency relative to 8 (rat mGlu7): ~ 2 fold
CCOC(=O)c1cnccc1N1CCN(c2ccccc2OC)CC1 [13a],–,fold loss of mGlu7 NAM potency relative to 8 (rat mGlu7): ~ 6.5 fold
CCOC(=O)c1cnc2c(OC)cccc2c1N1CCN(c2cccnc2OC)CC1 [11l],modest potency,–
CCOC(=O)c1cnc2c(OC)cccc2c1N1CCN(c2ccccc2Cl)CC1 [11d],lost activity,–
CCOC(=O)c1cnc2c(OC)cccc2c1C1C2CC1CN(c1ccccc1OC)C2 (stereo not drawn) [14f],inactive,–
CCOC(=O)c1cnc2c(OC)cccc2c1N1CCN(c2ccccc2C#N)CC1 [11f],lost activity,–
CCOC(=O)c1cnc2c(OC)cccc2c1N1CCN(c2ccc(OC)cc2OC)CC1 [11i],retained mGlu7 NAM potency,–
CCOC(=O)c1cnc2c(OC)cccc2c1N1CCN(c2ccccc2C)CC1 [11e],lost activity,–
CCOC(=O)c1cnc2c(OC)cccc2c1N1CCN(c2nccnc2OC)CC1 [11m],modest potency,–
CCOC(=O)c1cnc2c(OC)cc(OC)cc2c1-c1ccc(-c2ccccc2OCC)nc1 [compound 19],sub-micromolar,–
CCOC(=O)c1cnc2c(OC)cccc2c1N1CCN(c2ccccc2F)CC1 [11h],lost activity,–
CCOC(=O)c1cnc2c(OC)cccc2c1N1CCN(c2ccccc2OC)CC1C (stereo not drawn) [14b],–,fold loss of mGlu7 NAM potency relative to 8 (rat mGlu7): ~ 2 fold
CCOC(=O)c1cnc2c(OC)cccc2c1N1CCN(c2c(OC)cccc2OC)CC1 [11j],retained mGlu7 NAM potency,–
CCOC(=O)c1cnc2c(OC)cc(OC)cc2c1-c1ccc(-c2ccccc2OC)nc1 [compound 18],sub-micromolar,–
CCOC(=O)c1cnc2c(OC)cccc2c1N1CCN(c2ccccc2OC)CC1 [compound 8],–,stability of the ester under cell-based assay conditions [1]: stable

# Reference: article PMC7686273 (Bioorganic & medicinal chemistry letters, 2020)
